Species on record: Rattus norvegicus
Experiment: DrugMatrix - Regimen: Daily Repeat
Assay type: toxicity, organism-based, Sprague-Dawley
Set-up: regimen Daily Repeat, gender Male, age 6-8 weeks
Settings: in vivo, iv, vehicle 100 % SALINE; for ABSOLUTE BASOPHIL / ABSOLUTE EOSINOPHIL / ABSOLUTE LYMPHOCYTE / ABSOLUTE MONOCYTE / ABSOLUTE SEGMENTED NEUTROPHIL / BASOPHIL / EOSINOPHIL / ERYTHROCYTE COUNT / HEMATOCRIT / HEMOGLOBIN / LEUKOCYTE COUNT / LYMPHOCYTE / MEAN CORPUSCULAR HEMOGLOBIN / MEAN CORPUSCULAR HEMOGLOBIN CONCENTRATION / MEAN CORPUSCULAR VOLUME / MONOCYTE / NEUTROPHIL / NUCLEATED RED BLOOD CELLS / PLATELET COUNT: tissue Blood; for ALANINE AMINOTRANSFERASE / ALBUMIN / ALKALINE PHOSPHATASE / ASPARTATE AMINOTRANSFERASE / BLOOD UREA NITROGEN / CARBON DIOXIDE / CHLORIDE / CHOLESTEROL / CREATINE PHOSPHOKINASE / CREATININE / GLUCOSE / LACTATE DEHYDROGENASE / LIPASE / PHOSPHORUS / POTASSIUM / SODIUM / TOTAL BILIRUBIN / TOTAL PROTEIN / URIC ACID: tissue Plasma
[1] = 33 mg/kg, 72 h, dose level Low, time 3 day
[2] = 33 mg/kg, 120 h, dose level Low, time 5 day
[3] = 1000 mg/kg, 72 h, dose level High, time 3 day
[4] = 1000 mg/kg, 120 h, dose level High, time 5 day

SMILES: CO/N=C(\C(=O)N[C@@H]1C(=O)N2C(C(=O)O)=C(COC(C)=O)CS[C@H]12)c1csc(N)n1 [CEFOTAXIME]
- ABSOLUTE BASOPHIL [1]: 0 CELLS/uL
- ABSOLUTE EOSINOPHIL [1]: 0 CELLS/uL
- ABSOLUTE LYMPHOCYTE [1]: 11282.67 CELLS/uL
- ABSOLUTE MONOCYTE [1]: 120 CELLS/uL
- ABSOLUTE SEGMENTED NEUTROPHIL [1]: 730.67 CELLS/uL
- BASOPHIL [1]: 0%
- EOSINOPHIL [1]: 0%
- ERYTHROCYTE COUNT [1]: 5.79 x10E6/uL
- HEMATOCRIT [1]: 35.7%
- HEMOGLOBIN [1]: 13.43 G/DL
- LEUKOCYTE COUNT [1]: 12.13 x10E3/uL
- LYMPHOCYTE [1]: 93%
- MEAN CORPUSCULAR HEMOGLOBIN [1]: 23.2 pg
- MEAN CORPUSCULAR HEMOGLOBIN CONCENTRATION [1]: 37.63 G/DL
- MEAN CORPUSCULAR VOLUME [1]: 61.63 fL
- MONOCYTE [1]: 0.67%
- NEUTROPHIL [1]: 6.33%
- NUCLEATED RED BLOOD CELLS [1]: 0 /100WBC
- PLATELET COUNT [1]: 1231.67 x10E3/uL
- ALANINE AMINOTRANSFERASE [1]: 55 u/L
- ALBUMIN [1]: 4.17 G/DL
- ALKALINE PHOSPHATASE [1]: 343 u/L
- ASPARTATE AMINOTRANSFERASE [1]: 90.67 u/L
- BLOOD UREA NITROGEN [1]: 15.67 mg/dL
- CARBON DIOXIDE [1]: 25.67 mmol/L
- CHLORIDE [1]: 103.33 MEQ/L
- CHOLESTEROL [1]: 73.67 mg/dL
- CREATINE PHOSPHOKINASE [1]: 330.67 u/L
- CREATININE [1]: 0.38 mg/dL
- GLUCOSE [1]: 167.33 mg/dL
- LACTATE DEHYDROGENASE [1]: 139.33 u/L
- LIPASE [1]: 12 u/L
- PHOSPHORUS [1]: 14.17 mg/dL
- POTASSIUM [1]: 7.29 MEQ/L
- SODIUM [1]: 146.03 MEQ/L
- TOTAL BILIRUBIN [1]: 0.17 mg/dL
- TOTAL PROTEIN [1]: 5.8 G/DL
- URIC ACID [1]: 2.07 mg/dL
- ABSOLUTE BASOPHIL [2]: 0 CELLS/uL
- ABSOLUTE EOSINOPHIL [2]: 0 CELLS/uL
- ABSOLUTE LYMPHOCYTE [2]: 11544.67 CELLS/uL
- ABSOLUTE MONOCYTE [2]: 213 CELLS/uL
- ABSOLUTE SEGMENTED NEUTROPHIL [2]: 1075.67 CELLS/uL
- BASOPHIL [2]: 0%
- EOSINOPHIL [2]: 0%
- ERYTHROCYTE COUNT [2]: 5.16 x10E6/uL
- HEMATOCRIT [2]: 32.83%
- HEMOGLOBIN [2]: 12.33 G/DL
- LEUKOCYTE COUNT [2]: 12.83 x10E3/uL
- LYMPHOCYTE [2]: 90%
- MEAN CORPUSCULAR HEMOGLOBIN [2]: 23.93 pg
- MEAN CORPUSCULAR HEMOGLOBIN CONCENTRATION [2]: 37.77 G/DL
- MEAN CORPUSCULAR VOLUME [2]: 63.47 fL
- MONOCYTE [2]: 1.67%
- NEUTROPHIL [2]: 8.33%
- NUCLEATED RED BLOOD CELLS [2]: 0 /100WBC
- PLATELET COUNT [2]: 1107.67 x10E3/uL
- ALANINE AMINOTRANSFERASE [2]: 62.33 u/L
- ALBUMIN [2]: 4.3 G/DL
- ALKALINE PHOSPHATASE [2]: 354.67 u/L
- ASPARTATE AMINOTRANSFERASE [2]: 90.33 u/L
- BLOOD UREA NITROGEN [2]: 17.67 mg/dL
- CARBON DIOXIDE [2]: 23 mmol/L
- CHLORIDE [2]: 104.67 MEQ/L
- CHOLESTEROL [2]: 70.33 mg/dL
- CREATINE PHOSPHOKINASE [2]: 349.67 u/L
- CREATININE [2]: 0.49 mg/dL
- GLUCOSE [2]: 153 mg/dL
- LACTATE DEHYDROGENASE [2]: 186 u/L
- LIPASE [2]: 11 u/L
- PHOSPHORUS [2]: 11.7 mg/dL
- POTASSIUM [2]: 6.42 MEQ/L
- SODIUM [2]: 146.17 MEQ/L
- TOTAL BILIRUBIN [2]: 0.2 mg/dL
- TOTAL PROTEIN [2]: 6.03 G/DL
- URIC ACID [2]: 1.63 mg/dL
- ABSOLUTE BASOPHIL [3]: 0 CELLS/uL
- ABSOLUTE EOSINOPHIL [3]: 92 CELLS/uL
- ABSOLUTE LYMPHOCYTE [3]: 10640.67 CELLS/uL
- ABSOLUTE MONOCYTE [3]: 57.67 CELLS/uL
- ABSOLUTE SEGMENTED NEUTROPHIL [3]: 1309.67 CELLS/uL
- BASOPHIL [3]: 0%
- EOSINOPHIL [3]: 0.67%
- ERYTHROCYTE COUNT [3]: 5.89 x10E6/uL
- HEMATOCRIT [3]: 38.83%
- HEMOGLOBIN [3]: 13.87 G/DL
- LEUKOCYTE COUNT [3]: 12.1 x10E3/uL
- LYMPHOCYTE [3]: 88%
- MEAN CORPUSCULAR HEMOGLOBIN [3]: 23.53 pg
- MEAN CORPUSCULAR HEMOGLOBIN CONCENTRATION [3]: 35.73 G/DL
- MEAN CORPUSCULAR VOLUME [3]: 65.93 fL
- MONOCYTE [3]: 0.33%
- NEUTROPHIL [3]: 11%
- NUCLEATED RED BLOOD CELLS [3]: 0.33 /100WBC
- PLATELET COUNT [3]: 1356.67 x10E3/uL
- ALANINE AMINOTRANSFERASE [3]: 52.33 u/L
- ALBUMIN [3]: 4.4 G/DL
- ALKALINE PHOSPHATASE [3]: 407.67 u/L
- ASPARTATE AMINOTRANSFERASE [3]: 70.33 u/L
- BLOOD UREA NITROGEN [3]: 16.67 mg/dL
- CARBON DIOXIDE [3]: 29.33 mmol/L
- CHLORIDE [3]: 102.33 MEQ/L
- CHOLESTEROL [3]: 85.33 mg/dL
- CREATINE PHOSPHOKINASE [3]: 225 u/L
- CREATININE [3]: 0.27 mg/dL
- GLUCOSE [3]: 150 mg/dL
- LACTATE DEHYDROGENASE [3]: 77 u/L
- LIPASE [3]: 9.67 u/L
- PHOSPHORUS [3]: 11.8 mg/dL
- POTASSIUM [3]: 6.59 MEQ/L
- SODIUM [3]: 146.77 MEQ/L
- TOTAL BILIRUBIN [3]: 0.17 mg/dL
- TOTAL PROTEIN [3]: 6.43 G/DL
- URIC ACID [3]: 2.1 mg/dL
- ABSOLUTE BASOPHIL [4]: 0 CELLS/uL
- ABSOLUTE EOSINOPHIL [4]: 63 CELLS/uL
- ABSOLUTE LYMPHOCYTE [4]: 13558.67 CELLS/uL
- ABSOLUTE MONOCYTE [4]: 820 CELLS/uL
- ABSOLUTE SEGMENTED NEUTROPHIL [4]: 3591.67 CELLS/uL
- BASOPHIL [4]: 0%
- EOSINOPHIL [4]: 0.33%
- ERYTHROCYTE COUNT [4]: 5.88 x10E6/uL
- HEMATOCRIT [4]: 37.4%
- HEMOGLOBIN [4]: 14 G/DL
- LEUKOCYTE COUNT [4]: 18.03 x10E3/uL
- LYMPHOCYTE [4]: 75.33%
- MEAN CORPUSCULAR HEMOGLOBIN [4]: 23.8 pg
- MEAN CORPUSCULAR HEMOGLOBIN CONCENTRATION [4]: 37.47 G/DL
- MEAN CORPUSCULAR VOLUME [4]: 63.57 fL
- MONOCYTE [4]: 4.67%
- NEUTROPHIL [4]: 19.67%
- NUCLEATED RED BLOOD CELLS [4]: 0 /100WBC
- PLATELET COUNT [4]: 1367 x10E3/uL
- ALANINE AMINOTRANSFERASE [4]: 57.67 u/L
- ALBUMIN [4]: 4 G/DL
- ALKALINE PHOSPHATASE [4]: 325.67 u/L
- ASPARTATE AMINOTRANSFERASE [4]: 70.67 u/L
- BLOOD UREA NITROGEN [4]: 19 mg/dL
- CARBON DIOXIDE [4]: 23.67 mmol/L
- CHLORIDE [4]: 104.67 MEQ/L
- CHOLESTEROL [4]: 86.33 mg/dL
- CREATINE PHOSPHOKINASE [4]: 235.67 u/L
- CREATININE [4]: 0.3 mg/dL
- GLUCOSE [4]: 163.33 mg/dL
- LACTATE DEHYDROGENASE [4]: 138.67 u/L
- LIPASE [4]: 10 u/L
- PHOSPHORUS [4]: 12.13 mg/dL
- POTASSIUM [4]: 6.32 MEQ/L
- SODIUM [4]: 145.77 MEQ/L
- TOTAL BILIRUBIN [4]: 0.13 mg/dL
- TOTAL PROTEIN [4]: 6.3 G/DL
- URIC ACID [4]: 1.7 mg/dL

Reference: ChEMBL document CHEMBL3885881, “DrugMatrix”
